Experimental data published in US9790210B2, “N-(monocyclic aryl),N'-pyrazolyl-urea, thiourea, guanidine and cyanoguanidine compounds as TrkA kinase inhibitors” (Array BioPharma Inc., priority 2012, dated 2017).
Where a name gives a salt, the structure may show the parent alone.

Target: TrkA (Homo sapiens, UniProt P04629)
Assay: TrkA LanthaScreen Eu Kinase Binding Assay
Set-up: 6HIS tagged cytoplasmic domain from Invitrogen, Catalog No. PV3144; purchased Invitrogen PV3144
Conditions: averaged IC50; TR-FRET binding assay; read-out: TrkA Enzyme IC50
Protocol: TrkA binding activity was determined in a TrkA LanthaScreen™ Eu Kinase Binding Assay. 5 nM His-tagged recombinant human TrkA (6HIS tagged cytoplasmic domain from Invitrogen, Catalog No. PV3144) was incubated with 4 nM Alexa-Fluor® Tracer 236 (Invitrogen Cat. No. PV5592), 2 nM biotinylated anti-His (Invitrogen Cat. No. PV6090), and 2 nM europium-labeled Streptavidin (Invitrogen Cat. No. PV5899), in buffer (25 mM MOPS, pH 7.5, 5 mM MgCl2, 0.005% Triton X-100). Three fold serial dilutions of compounds of the invention in DMSO were added to a final percentage of 2% DMSO. After 60-minute incubation at 22° C., the reaction was measured using the EnVision mutlimode plate reader (PerkinElmer) via TR-FRET dual wavelength detection at […]. The percent of control was calculated using a ratiometric emission factor. The IC50 values were determined by fitting a four parameter model to the percent of control data.
Table A provides averaged IC50 values for compounds of the invention when tested in the assay of Example A, where A represents an averaged IC50 value<100 nM; B represents an averaged IC50 value from 100 to 1,000 nM; and C represents an averaged IC50 value from 1,000 to 10,000 nM.

TrkA, sequence (P04629 440-796 limits assumed): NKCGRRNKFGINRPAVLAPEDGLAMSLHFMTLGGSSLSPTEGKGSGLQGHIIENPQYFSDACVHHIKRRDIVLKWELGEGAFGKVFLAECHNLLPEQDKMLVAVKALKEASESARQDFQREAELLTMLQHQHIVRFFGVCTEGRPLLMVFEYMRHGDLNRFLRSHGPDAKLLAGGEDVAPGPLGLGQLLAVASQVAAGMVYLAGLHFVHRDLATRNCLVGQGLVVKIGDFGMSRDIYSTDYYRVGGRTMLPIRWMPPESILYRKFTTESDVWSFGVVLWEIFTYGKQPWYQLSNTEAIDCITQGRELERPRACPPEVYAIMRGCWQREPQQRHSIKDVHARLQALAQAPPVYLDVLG

| SMILES | IC50 [nM] |
| --- | --- |
| COCCCc1ccc(C(F)(F)F)cc1NC(=O)Nc1c(C)c(-c2ccc(=O)n(C)c2)nn1-c1ccccc1 [Example 25, 1-(2-(3-methoxypropyl)-5-(trifluoromethyl)phenyl)-3-(4-methyl-3-(1-methyl-6-oxo-1,6-dihydropyridin-3-yl)-1-phenyl-1H-pyrazol-5-yl)urea] | < 100 |
| COCCOc1cc(Cl)c(Cl)cc1NC(=O)Nc1c(C)c(-c2cnn(C)c2)nn1-c1ccccc1 [Example 3, 1-(4,5-dichloro-2-(2-methoxyethoxy)phenyl)-3-(1′,4-dimethyl-1-phenyl-1H,1′H-[3,4′-bipyrazol]-5-yl)urea] | < 100 |
| CNC(=O)c1nn(-c2ccccc2)c(NC(=O)Nc2cc(C(F)(F)F)c(F)cc2CCCOC)c1C [Example 19, 5-(3-(4-fluoro-2-(3-methoxypropyl)-5-(trifluoromethyl)phenyl)ureido)-N,4-dimethyl-1-phenyl-1H-pyrazole-3-carboxamide] | < 100 |
| COCC(F)(F)Cc1cc(Cl)c(Cl)cc1NC(=O)Nc1c(C)c(-c2ccc(=O)n(C)c2)nn1-c1ccccc1 [Example 20, 1-(4,5-dichloro-2-(2,2-difluoro-3-methoxypropyl)phenyl)-3-(4-methyl-3-(1-methyl-6-oxo-1,6-dihydropyridin-3-yl)-1-phenyl-1H-pyrazol-5-yl)urea] | < 100 |
| COCCCc1cc(Cl)c(Cl)cc1NC(=O)Nc1c(C)c(C(=O)NC2CCN(C)CC2)nn1-c1ccccc1 [Example 33, 5-(3-(4,5-dichloro-2-(3-methoxypropyl)phenyl)ureido)-4-methyl-N-(1-methylpiperidin-4-yl)-1-phenyl-1H-pyrazole-3-carboxamide] | < 100 |
| COCCCc1ccc(Cl)cc1NC(=O)Nc1c(C)c(-c2cnn(C)c2)nn1-c1ccccc1 [Example 9, 1-(5-chloro-2-(3-methoxypropyl)phenyl)-3-(1′,4-dimethyl-1-phenyl-1H,1′H-[3,4′-bipyrazol]-5-yl)urea] | < 100 |
| COCCOc1ncc(C(F)(F)F)cc1NC(=O)Nc1c(C)c(-c2cnn(C)c2)nn1-c1ccccc1 [Example 4, 1-(1′,4-dimethyl-1-phenyl-1H,1′H-[3,4′-bipyrazol]-5-yl)-3-(2-(2-methoxyethoxy)-5-(trifluoromethyl)pyridin-3-yl)urea] | 100 to 1000 |
| COCCOc1nc(C)ccc1NC(=O)Nc1c(C)c(-c2cnn(C)c2)nn1-c1ccccc1 [Example 1, 1-(1′,4-dimethyl-1-phenyl-1H,1′H-[3,4′-bipyrazol]-5-yl)-3-(2-(2-methoxyethoxy)-6-methylpyridin-3-yl)urea] | 1000 to 10000 |
| CNC(=O)c1nn(-c2ccccc2)c(NC(=O)Nc2cc(Cl)c(Cl)cc2CCCOC)c1C [Example 16, 5-(3-(4,5-dichloro-2-(3-methoxypropyl)phenyl)ureido)-N,4-dimethyl-1-phenyl-1H-pyrazole-3-carboxamide] | < 100 |
| COCCOc1cc(C(F)(F)F)ccc1NC(=O)Nc1c(C)c(-c2cnn(C)c2)nn1-c1ccccc1 [Example 10, 1-(1′,4-dimethyl-1-phenyl-1H,1′H-[3,4′-bipyrazol]-5-yl)-3-(2-(2-methoxyethoxy)-4-(trifluoromethyl)phenyl)urea] | < 100 |
| CNC(=O)c1nn(-c2ccccc2)c(NC(=O)Nc2cc(Cl)c(Cl)cc2CC(F)(F)COC)c1C [Example 27, 5-(3-(4,5-dichloro-2-(2,2-difluoro-3-methoxypropyl)phenyl)ureido)-N,4-dimethyl-1-phenyl-1H-pyrazole-3-carboxamide] | < 100 |
| COCCOc1cc(Cl)c(F)cc1NC(=O)Nc1c(C)c(-c2cnn(C)c2)nn1-c1ccccc1 [Example 5, 1-(4-chloro-5-fluoro-2-(2-methoxyethoxy)phenyl)-3-(1′,4-dimethyl-1-phenyl-1H,1′H-[3,4′-bipyrazol]-5-yl)urea] | < 100 |

Results, then the compound that gave them:

| IC50 [nM] | SMILES |
| --- | --- |
| < 100 | COCCCc1cc(Cl)c(Cl)cc1NC(=O)Nc1c(C)c(OC[C@@H]2CCCN(C)C2)nn1-c1ccccc1 [Example 35, (R)-1-(4,5-dichloro-2-(3-methoxypropyl)phenyl)-3-(4-methyl-3-((1-methylpiperidin-3-yl)methoxy)-1-phenyl-1H-pyrazol-5-yl)urea] |
| < 100 | COCCCc1cc(Cl)c(Cl)cc1NC(=O)Nc1c(C)c(OC[C@@H]2CN(C)CCO2)nn1-c1ccccc1 [Example 31, (S)-1-(4,5-dichloro-2-(3-methoxypropyl)phenyl)-3-(4-methyl-3-((4-methylmorpholin-2-yl)methoxy)-1-phenyl-1H-pyrazol-5-yl)urea] |
| < 100 | COCCCc1cc(Cl)c(Cl)cc1NC(=O)Nc1c(C)c(OC[C@@H]2CCCNC2)nn1-c1ccccc1 [Example 47, (R)-1-(4,5-dichloro-2-(3-methoxypropyl)phenyl)-3-(4-methyl-1-phenyl-3-(piperidin-3-ylmethoxy)-1H-pyrazol-5-yl)urea hydrochloride] |
| < 100 | COCCCc1cc(Cl)c(Cl)cc1NC(=O)Nc1c(C)c(OC[C@@H]2CNCCO2)nn1-c1ccccc1 [Example 38, (S)-1-(4,5-dichloro-2-(3-methoxypropyl)phenyl)-3-(4-methyl-3-(morpholin-2-ylmethoxy)-1-phenyl-1H-pyrazol-5-yl)urea hydrochloride] |
| < 100 | COCCCc1cc(Cl)c(Cl)cc1NC(=O)Nc1c(C)c(OCC2CCCN2)nn1-c1ccccc1 (stereo not drawn) [Example 43, 1-(4,5-dichloro-2-(3-methoxypropyl)phenyl)-3-(4-methyl-1-phenyl-3-(pyrrolidin-2-ylmethoxy)-1H-pyrazol-5-yl)urea hydrochloride] |
| < 100 | COCCCc1cc(Cl)c(Cl)cc1NC(=O)Nc1c(C)c(OC[C@H](O)CO)nn1-c1ccccc1 [Example 21, (R)-1-(4,5-dichloro-2-(3-methoxypropyl)phenyl)-3-(3-(2,3-dihydroxypropoxy)-4-methyl-1-phenyl-1H-pyrazol-5-yl)urea] |
